Experimental data reported in PMC9820118, “Betulin Acid Ester Derivatives Inhibit Cancer Cell Growth by Inducing Apoptosis through Caspase Cascade Activation: A Comprehensive In Vitro and In Silico Study” (International Journal of Molecular Sciences, 2022).
pIC50: −log10 of the molar value. “Also recorded” adds a separate entry of the source.

Assays:
MV4-11 cells [1] = test: Antiproliferative activity, MTT assay, MV4-11 leukemia cells; assay type: cell-based, human; conditions: for pIC50: Homo sapiens, MV4-11, 72 h, 72 h incubation, MTT, read-out: Growth inhibition IC50, leukemia cell line MV4-11; for Calculated Selectivity Index SI, MV4-11: IC50 BALB/3T3 / IC50 MV4-11
Experimental: (§7) The in vitro antiproliferative activity tests have been conducted against four human cancer cell lines: MV4-11 biphenotypic B myelomonocytic leukemia cell line, A549 lung carcinoma cell line, MCF-7 breast carcinoma cell line, PC-3 prostate carcinoma cell line and one normal BALB/3T3 mouse fibroblast cell line. […] All tested compounds were dissolved in DMSO and diluted with a culture medium to a desired concentration. […] Cell viability, after 72 h incubation of the cells with tested compounds, was determined using tetrazolinum dye MTT (for MV4-11 cells) or sulforhodamine B (SRB test, for MCF-7, A549, PC-3, BALB/3T3 cells) colorimetric assays.
(§8) Human biphenotypic B myelomonocytic leukemia MV4-11, murine normal fibroblast BALB/3T3 cells were obtained from the American Type Culture Collection (USA); and human lung carcinoma A549, human breast cancer MCF-7 and human prostate adenocarcinoma PC-3 were obtained from the European Collection of Authenticated Cell Cultures (UK).
(§9) MV4-11 and PC-3 cells were cultured in RPMI 1640 medium (HIIET PAS, Poland) with 1.0 mM sodium pyruvate (only MV4-11) and 10% fetal bovine serum (FBS) (all from Merck, Darmstadt, Germany). A549 cells were cultured in RPMI 1640 + Opti-MEM (1:1) ((HIIET PAS, Poland and Gibco, UK) supplemented with 5% fetal bovine serum (Merck, Darmstadt, Germany). The MCF-7 cells were cultured in Eagle medium (HIIET PAS, Poland) supplemented with 8 mg/mL of insulin and 1% of MEM NON-Essential amino acid (all Merck, Darmstadt, Germany). Normal fibroblasts BALB/3T3 cells were cultured in DMEM medium (Gibco, UK) supplemented with 10% fetal bovine serum and 1.0 mM sodium pyruvate (all from Merck, Darmstadt, Germany). All culture media were supplemented with 2 mM L-glutamine (Merck, Darmstadt, Germany), 100 units/ml penicillin, (Polfa Tarchomin S.A., Poland) and 100 µg/mL streptomycin (Merck, Darmstadt, Germany). All cell lines were grown at 37 °C in a 5% CO2 humidified atmosphere.
(§10) The solutions of the tested compounds were prepared by dissolving the substances in DMSO to the desired concentration (25 mM). Then, the tested compounds were diluted in a culture medium to reach the final concentrations. Before addition of the tested compounds (24 h prior), the cells were plated in 96-well plates (Sarstedt, Germany) at a density of 1 × 10^4, 0.75 × 10^4 (MCF-7) or 0.5 × 10^4 (A549) cells per well. The assay was performed after 72 h of exposure to 100, 10, 1 and 0.1 µM concentration of the tested agents. […] The SRB method determined the amount of cellular proteins. The concentration of the colorimetric probe (formazan in MTT or sulforhodamine B in SRB method) was determined by an optical density measurement using a standard microplate reader for 96-well plates. After optical density measurement, using the data of the mean absorbances of control cells (AbCC), the absorbances of cells treated by the tested compound (AbTr) (for each concentration separately) and the absorbance of the cultured medium (AbCM) the % of cell proliferation inhibition was calculated according to the following formula: % inh. cells proliferation=100−AbTr−AbCM/AbCC−AbCM×100
(§11) From the obtained proliferation inhibition values, effect-concentration curves of the compound used were plotted. […] IC50 values were calculated for each experiment separately using the Prolab-3 system based on Cheburator 0.4 software [36] and mean values (±SD) are presented. Each compound in each concentration was tested in triplicate in a single experiment, which was repeated 3–5 times.

PC-3 cells = test: Induction of apoptosis, Annexin V/PI staining, PC-3; assay type: cell-based, human; conditions: about 1.5 × IC50, 72 h
Source text: (§1) Apoptosis is one of a cell’s natural mechanisms for programmed cell death. It plays a crucial role in homeostasis by eliminating the unwanted or unnecessary cells. One of the most important functions of apoptosis is prevention of cancer. However, cancer cells often lose the ability to enter the path of apoptosis, which allows them to survive longer and grow in an uncontrolled manner. Regardless of that, apoptosis still remains the most important molecular mechanism to combat cancer cells; therefore, research is conducted to obtain agents with the ability to selectively induce apoptosis in cancer cell lines.
(§2) The MV4-11, A549 and PC-3 cells were seeded on 24-well plates (Sarstedt, Germany) for a final volume of 1.5 mL. […] After incubation, the cells were collected and 2 × 10^5 of cells were washed twice with PBS. […] Results were analyzed using Flowing software 2.5.1. […]

caspase-3/7 [2] = test: Caspase-3/7 activity (AC-DEVD-AMC substrate) in A549 cells; assay type: cell-based, human; set-up: key: +: plus mark represents statistically important elevated activity of caspase 3/7 compared to control
Source text: (§3) Caspase-3 and caspase-7 are cysteine-aspartic acid proteases that can directly execute apoptosis […] sequential activation of caspase-8 or caspase-9. Activation of these enzymes leads to apoptotic cell death; thus, measuring their activity is a good method to determine the pro-apoptotic potential of tested compounds. One of the mechanisms of betulin’s antiproliferative activity is activation of these enzymes; therefore, to further examine the mechanism of action of tested derivatives, we decided to determine their levels.
(§4) The MV4-11, A549 and PC-3 cells were seeded on 48-well plates for a final volume of 1 mL. […] After incubation, the cells were collected and centrifuged (5 min., 4 °C, 250× g). Cells were suspended in 50 µL of ice-cold lysis buffer (50 mM HEPES, 10% (w/v) sucrose, 150 mM NaCl, 2 mM EDTA and 1% (v/v) Triton X-100, pH 7.3, HIIET, Poland) and incubated 30 min. at […]. After the incubation, 40 µL of each sample was transferred to a white, 96-well plate (Corning, CA, USA) containing 160 µL of the reaction buffer (20 mM HEPES, 10 % sucrose, 100 mM NaCl, 1 mM EDTA, 10 mM DTT, 0.02 % Trition X-100, pH 7.3) (HIIET, Wroclaw, Poland) with 9 µM AC-DEVD-AMC (Cayman Chemical) fluorogenic substrate (λex = 360 nm, λem = 460 nm). The fluorescence increase correlated with the caspase-3/7 level was continuously recorded at 37 °C for 120 min using a Biotek Synergy H4 (Biokom, Warsaw, Poland). Compounds were tested in duplicates in a single experiment and each experiment was repeated at least three times independently. Results were normalized to the number of cells in each well and are reported as mean relative caspase-3/7 activity compared to the untreated control sample ± SD.

caspase-3/7 [3] = test: Caspase-3/7 activity (AC-DEVD-AMC substrate) in PC-3 cells; assay type: cell-based, human; set-up: key to Caspase 3/7 Activity, PC-3: +: plus mark represents statistically important elevated activity of caspase 3/7 compared to control; conditions: for Caspase 3/7 Activity, PC-3: +/− summary vs control
Source text: as §3, §4

in vitro = conditions: mouse
Experimental: as §7, §8, §9, §10, §11

[4] = Experimental lipophilicity by RP-TLC; conditions: for RM0: RP-TLC, RP-18 F254S, acetone / Tris buffer pH 7.4, extrapolated to zero acetone
Experimental: The retention mechanism in the RP-TLC method is based on the partition of substances between two phases. Silica gel (RP-18 F254S plates) was used as the hydrophobic stationary phase. In contrast, the hydrophilic mobile phase was a binary mixture of acetone and an aqueous solution of TRIS buffer.
Chromatographic analysis by RP-TLC was performed an aluminum backed silica gel RP-18 F254S
phenylanthracene] and tested betulin derivatives were dissolved in chloroform to obtain a
concentration of 2 mg/mL. The prepared solutions were spotted on the plates in the amount of 2 μL.
the next step, the chromatographic chambers were saturated 30 min of the appropriate mobile phases
consisting of a mixture of acetone (Merck, Darmstadt, Germany) and aqueous solution of buffer Tris
[(tris-hydroxymethyl)aminomethane] (Fluka, Loughborough, 0.2 M, pH 7.4). The amount of acetone in
the mobile phase were in the range 60-90% in 5% increments. The chromatograms were developed for
each compound in triplicate at room temperature. The spots of betulin derivatives were visualized by
spraying the plates with the mixture of ethanol and concentrated sulfuric acid (10:1, v/v) and heating
The retardation factor (Rf) were calculated according to the equation below:
(a-the distance from the start line to the spot center, b-the distance from the start line to the mobile
The RM values were calculated by the Bate-Smith and Westall equation:
The RM0 parameters were obtained by extrapolating on the acetone content to zero, according to the
Soczewiński-Wachtmeister equation:
(C-the percentage concentration of acetone in the mobile phase, b-the slope of the regression plot).
The calibration curve was determined using eight reference compounds.
compounds were determined under the same conditions as for betulin derivatives (Table S1).

A549 cell line = test: Antiproliferative activity, SRB assay, A549 lung carcinoma cells; conditions: for Antiproliferative Activity, A549: +/− summary, IC50 vs betulin 1; for pIC50: Homo sapiens, A549, 72 h, read-out: Cytotoxicity IC50 against A549 cell line; for Calculated Selectivity Index SI, A549: IC50 BALB/3T3 / IC50 A549
Experimental: as §7, §8, §9, §10, §11

MCF-7 cell line = test: Antiproliferative activity, SRB assay, MCF-7 breast carcinoma cells; conditions: for pIC50: Homo sapiens, MCF7, 72 h, read-out: Cytotoxicity IC50 against MCF-7 cell line; for Calculated Selectivity Index SI, MCF-7: IC50 BALB/3T3 / IC50 MCF-7
Experimental: as §7, §8, §9, §10, §11

PC-3 cell line = test: Antiproliferative activity, SRB assay, PC-3 prostate carcinoma cells; conditions: for pIC50: Homo sapiens, PC-3, 72 h, read-out: Cytotoxicity IC50 against PC-3 cell line; for Calculated Selectivity Index SI, PC-3: IC50 BALB/3T3 / IC50 PC-3
Experimental: as §7, §8, §9, §10, §11

A549 cells [5] = test: Cell cycle analysis, PI staining flow cytometry, A549; assay type: cell-based, human; conditions: for Influence on cell cycle, A549, 72 h: about IC50, 72 h
Experimental: (§5) The effects of the selected derivatives on the cell cycle were analyzed by flow cytometry using PI staining.
(§6) The MV4-11, A549 and PC-3 cells were seeded on 24-well plates (Sarstedt, Germany) for a final volume of 1.5 mL. […] After incubation, the cells were collected and 1 × 10^6 of cells were washed twice in cold PBS and fixed for 24 h in 70% ethanol at −20 °C, the cells were washed twice in PBS and incubated with RNAse (8 μg/mL, Fermentas, Germany) at 37 °C for 1 h. The cells were stained for 30 min. with propidium iodide (50 μg/mL, Sigma Aldrich, Germany) at 4 °C and the cellular DNA content was analyzed by flow cytometry using BD LSRFortessa cytometer (BD Bioscience, San Jose, CA, USA). Compounds at each concentration were tested at least three times independently. The obtained results were analyzed using Flowing software 2.5.1 (Cell Imaging Core, Turku Centre for Biotechnology, University of Turku and Åbo Akademi University, Turku, Finland).

caspase-3/7 [6] = test: Caspase-3/7 activity (AC-DEVD-AMC substrate) in MV4-11 cells; assay type: cell-based, human
Source text: as §3
The MV4-11, A549 and PC-3 cells were seeded on 48-well plates for a final volume of 1 mL. […] After incubation, the cells were collected and centrifuged (5 min., 4 °C, 250× g). Cells were suspended in 50 µL of ice-cold lysis buffer (50 mM HEPES, 10% (w/v) sucrose, 150 mM NaCl, 2 mM EDTA and 1% (v/v) Triton X-100, pH 7.3, HIIET, Poland) and incubated 30 min. at 40 °C. […] The fluorescence increase correlated with the caspase-3/7 level was continuously recorded at 37 °C for 120 min using a Biotek Synergy H4 (Biokom, Warsaw, Poland). […]

A549 cells [7] = test: Induction of apoptosis, Annexin V/PI staining, A549; assay type: cell-based, human; conditions: about 1.5 × IC50, 24 h
Source text: as §1, §2

MV4-11 cells [8] = test: Cell cycle analysis, PI staining flow cytometry, MV4-11; assay type: cell-based, human; conditions: about IC50, 24 and 72 h
Experimental: as §5, §6

[9] = Cytotoxicity, SRB assay, normal BALB/3T3 fibroblasts; conditions: mouse, BALB/3T3 normal fibroblast cells
Experimental: as §7, §8, §9, §10, §11

[10] = set-up: method as in earlier work; conditions: literature lipophilicity of RP-TLC reference compounds; cited from earlier work
[11] = 1.5 × IC50, 24 h, several-fold lower at 72 h

Compound	pIC50 (MV4-11 cells [1])	Calculated Selectivity Index SI, MV4-11 (MV4-11 cells [1])	Induction of apoptosis (AnV/PI), PC-3, 72 h (PC-3 cells)	caspase 3/7 activity, A549 (caspase-3/7 [2]; [11])	caspase 3/7 activity, A549 (caspase-3/7 [2]; +/− summary vs control)	Caspase 3/7 Activity, PC-3 (caspase-3/7 [3])	IC50 at 72 h (in vitro)	RM0 [4]	Antiproliferative Activity, A549 (A549 cell line)	pIC50 (A549 cell line)	Calculated Selectivity Index SI, A549 (A549 cell line)	pIC50 (MCF-7 cell line)	Calculated Selectivity Index SI, MCF-7 (MCF-7 cell line)	pIC50 (PC-3 cell line)	Calculated Selectivity Index SI, PC-3 (PC-3 cell line)	Influence on cell cycle, A549, 72 h (A549 cells [5])	caspase-3/7 levels, MV4-11, 24 h (caspase-3/7 [6])	other results
C=C(C)[C@@H]1CC[C@]2(COC(=O)CCC(=O)N3CCOCC3)CC[C@]3(C)C(CCC4[C@@]5(C)CC[C@H](O)C(C)(C)C5CC[C@]43C)C12 (some centres unmarked) [2b]	5.40	6.4	shifting the ratio of the living cell population towards apoptotic and necrotic ones	hugely elevated caspase 3/7 activity	+	+	25 µM	5.024	+	5.10	3.1	4.72	1.3	4.75	1.4	–	–	caspase-3/7 activity, PC-3 (caspase-3/7 [3]; 1.5 × IC50, 24 and 72 h): very high level of caspase-3/7 after 24 and 72 h; Antiproliferative Activity, PC-3 (PC-3 cell line; +/− summary, IC50 vs betulin 1): +
C=C(C)[C@@H]1CC[C@]2(COC(=O)CCC(=O)N3CCCCC3)CC[C@]3(C)C(CCC4[C@@]5(C)CC[C@H](O)C(C)(C)C5CC[C@]43C)C12 (some centres unmarked) [2c]	5.24	5.7	–	hugely elevated caspase 3/7 activity	+	–	32.7 µM	5.728	+	5.16	4.7	4.65	1.5	4.51	1.1	induced cycle arrest in the G0/G1 phase with a decrease in the G2/M phase	increased levels of caspase-3/7	–
C=C(C)[C@@H]1CC[C@]2(COC(=O)CCC(=O)N3CCSCC3)CC[C@]3(C)C(CCC4[C@@]5(C)CC[C@H](O)C(C)(C)C5CC[C@]43C)C12 (some centres unmarked) [2d]	5.50	15.8	–	–	–	–	> 50 µM	5.898	–	4.49	1.6	4.30	1.0	4.30	1.0	greater percentage of dead cells with a decrease in G2/M and G0/G1 phases	increased levels of caspase-3/7	–
C=C(C)[C@@H]1CC[C@]2(COC(=O)CCC(=O)O)CC[C@]3(C)C(CCC4[C@@]5(C)CC[C@H](O)C(C)(C)C5CC[C@]43C)C12 (some centres unmarked) [compound 2]	4.63	2.3	shifting the ratio of the living cell population towards apoptotic and necrotic ones	hugely elevated caspase 3/7 activity	+	+	–	5.910	–	4.45	1.5	4.27	1.0	4.16	0.8	greater percentage of dead cells with a decrease in G2/M and G0/G1 phases	–	Induction of apoptosis (AnV/PI), A549, 24 h (A549 cells [7]): significantly increased levels of early-apoptotic and apoptotic cells; Influence on cell cycle, A549, 24 h (A549 cells [5]; about IC50, 24 h): significantly induced cell cycle arrest in the G0/G1 phase; also recorded: reduced the number of cells in the S phase with an increased number of dead cells; Influence on cell cycle, MV4-11 (MV4-11 cells [8]): statistically significant increase in the number of cells in the G0/G1 phase; log PTLC ([4]; from RM0 by calibration curve with eight reference compounds): 8.191; IC50 at 72 h [9]: 53.4 µM
c1ccc(CCc2ccccc2)cc1 [dibenzyl, reference compound]	–	–	–	–	–	–	–	3.54	–	–	–	–	–	–	–	–	–	LogPlit [10]: 4.49
